Experimental data from patent publication US20030092616A1, “STAT6 activation gene” (priority 2001, published 2003).

Tested on: STAT6
Experiment: Screening compounds inhibiting promotion of STAT6 activity (STAT6 reporter activity)
Format: cell-based
Conditions: 20 μM, mouse IL-4 1 ng/ml, 6 h; for inhibition of expression of the STAT6 reporter gene, control plasmid well: NIH3T3 cells with control plasmid pcDNA3.1 (+); for inhibition of expression of the STAT6 reporter gene (relative luciferase activity): NIH3T3 cells with plasmid for STAT6 activation-promoting protein of SEQ ID NO: 3, 17, 19, 218, 432 or 472, or nucleotide of SEQ ID NO: 64, FIGS. 1 to 7
Procedure: NIH3T3 cells were seeded on 10% FBS containing IMDM medium in a 96-well cell culture plate to a final cell density of 1×10^4 cells/100 μl/well, and cultured for 24 hours at 37° C. in the presence of 5% CO2. Then, 30 ng of the plasmid containing the nucleotide encoding the STAT6 activation-promoting protein of SEQ ID NO: 3, 17, 19, 218, 432 or 472, or the nucleotide of SEQ ID NO: 64, and 100 ng of the luciferase reporter plasmid having the STAT6 response sequence were cotransfected into the cells in a well using FuGENE 6. […] After 30 min of culture at 37° C., followed by 6 hours of culture with addition of mouse IL-4 to a final concentration of 1 ng/ml, the reporter activity was measured using PIKKA GENE LT2.0.

| SMILES | inhibition of expression of the STAT6 reporter gene, control plasmid well | inhibition of expression of the STAT6 reporter gene (relative luciferase activity) |
| --- | --- | --- |
| N#C/C(=C/c1ccc(O)c(O)c1)C(=O)NCc1ccccc1 [AG490] | no expression was inhibited at all | inhibited |
| N#CC(C#N)=Cc1ccc(O)c(O)c1 [AG18] | no expression was inhibited at all | inhibited |
